Test results reported in patent publication US20190105261A1, “METHODS AND COMPOSITIONS FOR TOPICAL DELIVERY” (Illustris Pharmaceuticals, Inc., priority 2017, published 2019).

What was measured:
[1] = 1% sildenafil, 12-20 hours
Text: Replicates of mid-dermal grafts were employed in a transcutaneous flux rig per relevant protocols.

[2] = in vivo, po; cited from earlier work
[3] = Oral sildenafil bioavailability and assumed tissue concentration; details: assuming uniform tissue distribution, average 75 kg male
[4] = 12-20 hours
Experimental: Porcine buccal tissue was harvested and cleaned of additional tissue. Punch biopsies (n=4 each) were obtained and employed in a transcutaneous flux rig per relevant protocols. […] Flux was continued for 12-20 hours with samples applied and left on donor surfaces.

[5] = Gabapentin delivery into porcine skin grafts, UPLC-MS; assay type: in vitro ADME; details: 1% gabapentin, 12-20 hours
Experimental: Delivery of gabapentin with hyaluronic acid into skin in vitro was measured using porcine skin grafts, and compared to delivery of gabapentin from a composition of gabapentin in saline (with no decoy molecule). Groups consisted of A) 1% gabapentin in saline (n=8 replicates), B) 1% gabapentin plus 1% sodium hyaluronate decoy of 3,000 Da in saline (n=8 replicates) or C) saline alone (n=8 replicates) in donor cells.
Briefly, tissues were incubated overnight in 0.5 mL of 50% acetonitrile in deionized water at 55° C. with agitation. Calibration standards and tissue extraction solvent samples were diluted 10× in deionized water before analysis. Diluted standards and samples were analyzed at 1 μL injection volumes. Concentrations were reported as μg/g of gabapentin in tissue.

[6] = 1 wt. % minocycline, in vitro
Experimental: Delivery of minocycline into porcine skin in vitro was measured and compared to delivery of minocycline from a composition of minocycline in saline (i.e, with no decoy molecule). Compositions were prepared containing of 1 wt. % minocycline and 1% of decoy molecule of hyaluronic acid with three molecular weights: 10,000 Da mean, 20,000 Da mean, and 30,000 Da mean. A control formulation containing 1 wt % minocycline in saline was also prepared

[7] = Sodium salicylate penetration into mid-dermal grafts, OD290 (Example 21); details: 1% sodium salicylate, 12-20 hours
Experimental: Replicates of mid-dermal grafts (grafts and punches for flux rig per Illustris sops), were employed in a transcutaneous flux rig per relevant protocols. […] Flux was continued for 12-20 hours with samples applied and left on donor surfaces.

SMILES: CCCc1nn(C)c2c(=O)[nH]c(-c3cc(S(=O)(=O)N4CCN(C)CC4)ccc3OCC)nc12 [Sildenafil alone, sildenafil]
- sildenafil tissue concentration [1]: not detectable
- bioavailability [2]: 41%
- tissue concentration at currently approved therapeutic dose [3]: 0.137 ug sildenafil per g of tissue

SMILES: O=C(O)c1ccccc1O [salicylate alone, salicylate]
- salicylate penetration through buccal tissue versus saline alone [4]: not statistically significant over saline alone

SMILES: NCC1(CC(=O)O)CCCCC1 [gabapentin alone, gabapentin]
- tissue levels of gabapentin [5]: 0.09 μg of gabapentin per gram of tissue

SMILES: CN(C)c1ccc(O)c2c1C[C@H]1C[C@H]3[C@H](N(C)C)C(O)=C(C(N)=O)C(=O)[C@@]3(O)C(O)=C1C2=O [minocycline]
- penetration of minocycline into porcine skin [6]: low native penetration

SMILES: O=C([O-])c1ccccc1O.[Na+] [Sodium salicylate, sodium salicylate]
- OD290 above saline (sodium salicylate in skin homogenate) [7]: 0.0165 AU
